Test results from patent US20090118135A1, “METHODS AND COMPOUNDS FOR REGULATING APOPTOSIS” (The Burnham Institute, priority 2007, published 2009).
Values joined by “and” are separate entries in the source; they are usually repeats but may differ in a detail not shown here. Equal values may be shown once. “Also recorded” adds a separate entry of the source. Where a SMILES comes first, the peptide text is derived from it. [ ]: non-standard residue; d: D form. Ahx = NCCCCCC(=O)O

Columns and labels:
GST-Bcl-2 = GST-Bcl-2 (Homo sapiens, UniProt P10415); experiment: Bcl-2/FITC-TR3 fluorescence polarization competition assay (PBS + Tween-20); conditions: for displacement of FITC-TR3-r8 from Bcl-2: result in words; for Bcl-2 H Coefficient: Hill coefficient of Bcl-2 dose-response curve
GST-Bcl-B [1] = target: T1, GST-Bcl-B (Homo sapiens, UniProt Q9HD36); experiment: Bcl-B/FITC-TR3-r8 fluorescence polarization competition (displacement) assay, HTS and dose-response; conditions: for Bcl-B H Coefficient: Hill coefficient of Bcl-B dose-response curve
T1 sequence (Q9HD36 1-182 limits assumed): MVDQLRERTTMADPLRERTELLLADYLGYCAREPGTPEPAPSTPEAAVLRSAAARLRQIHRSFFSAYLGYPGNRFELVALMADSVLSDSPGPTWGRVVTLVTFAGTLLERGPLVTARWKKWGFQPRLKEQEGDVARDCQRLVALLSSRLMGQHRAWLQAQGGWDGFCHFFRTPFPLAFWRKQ

GST-Bcl-B [2] = target: T1, GST-Bcl-B; experiment: biochemical

GST-Bcl-2, sequence (P10415 1-218 limits assumed): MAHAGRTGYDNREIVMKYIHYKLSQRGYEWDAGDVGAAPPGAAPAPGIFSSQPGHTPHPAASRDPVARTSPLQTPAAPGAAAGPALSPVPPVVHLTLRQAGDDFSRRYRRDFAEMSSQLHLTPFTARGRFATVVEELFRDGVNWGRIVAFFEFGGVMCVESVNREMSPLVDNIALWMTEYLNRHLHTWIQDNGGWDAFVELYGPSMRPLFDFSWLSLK

Compound	EC50 (GST-Bcl-B [1])	displacement of FITC-TR3-r8 from GST-Bcl-B (GST-Bcl-B [1]; result in words)	Bcl-2 H Coefficient (GST-Bcl-2)	Bcl-B H Coefficient (GST-Bcl-B [1])	IC50 (GST-Bcl-B [2])	displacement of FITC-TR3-r8 from Bcl-2 (GST-Bcl-2)
CC(=O)N[C@@H](Cc1ccccc1)C(=O)N[C@@H](CO)C(=O)N[C@@H](CCCNC(=N)N)C(=O)N[C@@H](CO)C(=O)N[C@@H](CC(C)C)C(=O)N[C@@H](Cc1c[nH]cn1)C(=O)N[C@@H](CO)C(=O)N[C@@H](CC(C)C)C(=O)N[C@@H](CC(C)C)C(=O)NCC(=O)NCCCCCC(=O)N[C@H](CCCNC(=N)N)C(=O)N[C@H](CCCNC(=N)N)C(=O)N[C@H](CCCNC(=N)N)C(=O)N[C@H](CCCNC(=N)N)C(=O)N[C@H](CCCNC(=N)N)C(=O)N[C@H](CCCNC(=N)N)C(=O)N[C@H](CCCNC(=N)N)C(=O)N[C@H](CCCNC(=N)N)C(N)=O [TR3-r8, reference compound] (Ac-FSRSLHSLLG[Ahx][dR][dR][dR][dR][dR][dR][dR][dR]-NH2)	0.0828 µM	displaced FITC-TR3-r8 as expected	–	–	–	effectively competed for binding
CN(C)CC[C@H](CSc1ccccc1)Nc1ccc(S(=O)(=O)NC(=O)c2ccc(N3CCN(Cc4ccccc4-c4ccc(Cl)cc4)CC3)cc2)cc1[N+](=O)[O-] [ABT-737, reference compound]	–	–	–	–	–	failed to block FITC-TR3-9-r8 peptide binding to Bcl-2; also recorded: did not effectively displace FITC-TR3-r8 from Bcl-2
Cc1ccc(C)n1-c1ccc(C(=O)O)c(Cl)c1 [Compound 5956338]	–	–	1.653	0.9562	9.96 µM	–
O=C1C(=Cc2cn(Cc3ccc(Cl)cc3)c3ccccc23)C(=O)c2ccccc21 [Compound 5603089]	–	–	–	1.917	14.4 µM	–
O=C(COc1ccc(Cl)cc1Cl)Nc1nnc(-c2ccco2)[nH]1 [Compound 5632817]	–	–	1.078	0.9962	17.9 µM	–
OC1=c2ccccc2=C(O)C12N=Nc1nnc(O)n1N2 [Compound 5627952]	–	–	1.575	0.9192	25.2 µM and 23.8 µM	–
Cc1ccc(C)n1-c1cc(C(=O)O)cc(C(=O)O)c1 [Compound 5950689]	–	–	0.6186	1.032	0.542 µM	–
O=C1NN(c2ccc(F)c(Cl)c2)C(=O)/C1=C\c1ccco1 [Compound 5837788]	–	–	–	1.772	33.4 µM	–

Second part, led by results:

EC50 (GST-Bcl-B [1])	displacement of FITC-TR3-r8 from GST-Bcl-B (GST-Bcl-B [1]; result in words)	Bcl-2 H Coefficient (GST-Bcl-2)	Bcl-B H Coefficient (GST-Bcl-B [1])	IC50 (GST-Bcl-B [2])	Compound	displacement of FITC-TR3-r8 from Bcl-2 (GST-Bcl-2)
–	–	1.241	1.182	3.69 µM	Oc1ccc(Nc2nc(-c3ccccn3)cs2)cc1 [Compound 5662807]	–
–	–	–	2.774	4.13 µM	O=C(O)C1C2CC=CC2c2cc(Oc3ccccc3)cc3c2N1CC1CC=CC31 (stereo not drawn) [Compound 5840196]	–
–	–	–	1.829	1.2 µM	O=C(O)C1Nc2c(cccc2[N+](=O)[O-])C2C=CCC12 (stereo not drawn) [Compound 5665283]	–
–	–	–	2.868	0.621 µM	Cc1ccc(C)n1-c1ccccc1C(=O)O [Compound 5959185]	–
–	–	–	2.075	1.05 µM	Nc1ccc(S(=O)(=O)O)c2cccc(O)c12 [Compound 5265894]	–
–	–	–	3.005	7.15 µM	O=C(O)C1Nc2ccc3ccccc3c2C2C=CCC12 (stereo not drawn) [Compound 5657743]	–
